Laboratory results taken from patent US11332459B2 (TEIJIN PHARMA LIMITED, priority 2017, dated 2022).
Structures can show the parent of a compound that is named as a salt.

Target: T1, human TRPC6 (Homo sapiens, UniProt Q9Y210)
T1 construct: expressed in transfected cells
T1 sequence (Q9Y210 1-931): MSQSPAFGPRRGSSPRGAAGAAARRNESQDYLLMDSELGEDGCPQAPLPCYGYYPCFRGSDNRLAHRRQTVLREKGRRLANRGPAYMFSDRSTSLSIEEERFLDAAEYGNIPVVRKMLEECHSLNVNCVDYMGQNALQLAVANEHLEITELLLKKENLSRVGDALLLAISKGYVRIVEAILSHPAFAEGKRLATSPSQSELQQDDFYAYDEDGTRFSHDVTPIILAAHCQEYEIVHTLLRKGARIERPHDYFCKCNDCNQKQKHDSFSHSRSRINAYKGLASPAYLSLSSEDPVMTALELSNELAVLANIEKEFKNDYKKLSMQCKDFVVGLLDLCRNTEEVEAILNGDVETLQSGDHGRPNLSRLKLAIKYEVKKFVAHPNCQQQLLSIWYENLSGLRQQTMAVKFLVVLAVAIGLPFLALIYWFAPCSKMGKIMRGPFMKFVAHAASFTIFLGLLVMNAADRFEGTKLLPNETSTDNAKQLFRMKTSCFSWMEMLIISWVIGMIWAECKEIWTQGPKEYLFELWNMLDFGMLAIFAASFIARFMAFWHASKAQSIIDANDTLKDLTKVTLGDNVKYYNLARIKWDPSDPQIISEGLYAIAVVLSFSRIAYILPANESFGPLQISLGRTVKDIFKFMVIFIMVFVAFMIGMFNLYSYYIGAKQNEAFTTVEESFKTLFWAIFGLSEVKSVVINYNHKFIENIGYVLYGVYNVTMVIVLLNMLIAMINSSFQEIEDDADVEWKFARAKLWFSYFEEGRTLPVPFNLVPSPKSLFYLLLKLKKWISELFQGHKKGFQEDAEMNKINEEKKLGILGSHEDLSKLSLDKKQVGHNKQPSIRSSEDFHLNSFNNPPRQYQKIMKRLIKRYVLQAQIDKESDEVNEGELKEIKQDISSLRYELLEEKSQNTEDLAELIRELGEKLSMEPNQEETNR
Experiment: TRPC6 calcium flux assay (FLIPR, OAG-stimulated calcium influx)
Format: cell-based
Conditions: HEK293 cells stably transfected with human TRPC6, read-out: hTRPC6 Potency
Procedure, shortened: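 HEK293 cells stably expressing human TRPC6, loaded with calcium dye 90–120 min at RT, then given compound for 25 min before OAG (50 uM final, 0.5% DMSO) in HEPES buffer pH 7.2 with 2 mM CaCl2. Background-subtracted FLIPR peak over 180 s normalized to OAG vs buffer; IC50 from dose plot.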

Row | SMILES | IC50
1 | N[C@@H]1CN(c2nc3cc(F)ccc3n2Cc2ncc(Cl)cn2)CC[C@H]1O [Example 494, (3R,4R)-3-amino-1-(1-((5-chloropyrimidin-2-yl)methyl)-5-fluoro-1H-benzo[d]imidazol-2-yl)piperidin-4-ol] | 12.6 nM
2 | N#Cc1ccc2c(c1)nc(N1CC[C@@H](F)[C@H](N)C1)n2Cc1ncc(Br)cn1 [Example 201, 2-((3R,4R)-3-amino-4-fluoropiperidin-1-yl)-1-((5-bromopyrimidin-2-yl)methyl)-1H-benzo[d]imidazole-5-carbonitrile] | 43.9 nM
3 | CN(CC(F)(F)F)C(=O)Cn1c(N2CC[C@H]3OCCN[C@@H]3C2)nc2ccc(F)cc21 [Example 488, 2-(6-fluoro-2-((4aR,8aR)-hexahydro-2H-pyrido[4,3-b][1,4]oxazin-6(5H)-yl)-1H-benzo[d]imidazol-1-yl)-N-methyl-N-(2,2,2-trifluoroethyl)acetamide] | > 3750 nM
4 | N[C@@H]1CN(c2nc3c(F)cc(F)cc3n2Cc2ccc(Cl)cn2)CCC1(F)F [Example 230, (R)-1-(1-((5-chloropyridin-2-yl)methyl)-4,6-difluoro-1H-benzo[d]imidazol-2-yl)-4,4-difluoropiperidin-3-amine hydrochloride] | 0.49 nM
5 | N[C@@H]1CN(c2nc3ccccc3n2Cc2ncc(C(F)(F)F)cn2)CC[C@H]1F [Example 193, (3R,4R)-4-fluoro-1-(1-((5-(trifluoromethyl)pyrimidin-2-yl)methyl)-1H-benzo[d]imidazol-2-yl)piperidin-3-amine] | 48.5 nM
6 | CNC(=O)Cn1c(N2CC[C@@H](F)[C@H](N)C2)nc2cc(F)c(F)cc21 [Example 275, 2-(2-((3R,4R)-3-amino-4-fluoro-1-piperidinyl)-5,6-difluoro-1H-benzimidazol-1-yl)-N-methylacetamide] | 0.32 nM
7 | N#Cc1ccc(Cn2c(N3CC[C@@H](F)[C@H](N)C3)nc3cc(C(F)(F)F)c(Cl)cc32)nc1 [Example 126, 6-((2-((3R,4R)-3-amino-4-fluoro-1-piperidinyl)-6-chloro-5-(trifluoromethyl)-1H-benzimidazol-1-yl)methyl)-3-pyridinecarbonitrile] | 0.48 nM
8 | N[C@@H]1CN(c2nc3cc(F)c(F)cc3n2Cc2ccc(Cl)cc2Cl)CC[C@H]1F [Example 341, (3R,4R)-1-(1-(2,4-dichlorobenzyl)-5,6-difluoro-1H-benzimidazol-2-yl)-4-fluoro-3-piperidinamine] | 25.8 nM
9 | N[C@@H]1CN(c2nc3cc(F)c(F)cc3n2CC(=O)N2CCc3sccc3C2)CC[C@H]1F [Example 505, 2-(2-((3R,4R)-3-amino-4-fluoropiperidin-1-yl)-5,6-difluoro-1H-benzo[d]imidazol-1-yl)-1-(6,7-dihydrothieno[3,2-c]pyridin-5(4H)-yl)ethan-1-one] | 43.2 nM
10 | N#Cc1ccc(Cn2c(N3CCC[C@H](N)C3)nc3ccccc32)cc1 [Example 167, (S)-4-((2-(3-aminopiperidin-1-yl)-1H-benzo[d]imidazol-1-yl)methyl)benzonitrile] | 1.97 nM
11 | CC(C)(C#N)c1ccc(Cn2c(N3CCC[C@@H](N)C3)nc3ccccc32)cc1 [Example 380, (R)-2-(4-((2-(3-aminopiperidin-1-yl)-1H-benzo[d]imidazol-1-yl)methyl)phenyl)-2-methylpropanenitrile] | 17000 nM

Next, values leading:

Row | IC50 | SMILES
12 | 2.14 nM | N#Cc1cnc(Cn2c(N3CC[C@@H](F)[C@H](N)C3)nc3ccccc32)cn1 [Example 202, 5-((2-((3R,4R)-3-amino-4-fluoropiperidin-1-yl)-1H-benzo[d]imidazol-1-yl)methyl)pyrazine-2-carbonitrile]
13 | 13.7 nM | C[C@@H](c1ccc(C#N)cn1)n1c(N2CC[C@@H](F)[C@H](N)C2)nc2cc(C#N)ccc21 [Example 226, 2-((3R,4R)-3-amino-4-fluoropiperidin-1-yl)-1-((S)-1-(5-cyanopyridin-2-yl)ethyl)-1H-benzo[d]imidazole-5-carbonitrile hydrochloride]
14 | 1200 nM | CC1CN(c2nc3ccc(F)cc3n2CC(=O)N(C)CC(F)(F)F)CC1N (stereo not shown) [Example 480, 2-(2-(3-amino-4-methylpyrrolidin-1-yl)-6-fluoro-1H-benzo[d]imidazol-1-yl)-N-methyl-N-(2,2,2-trifluoroethyl)acetamide]
15 | 0.389 nM | N#Cc1ccc(Cn2c(N3CC[C@@H](F)[C@H](N)C3)nc3cc(Cl)c(OC(F)(F)F)cc32)nc1 [Example 125, 6-((2-((3R,4R)-3-amino-4-fluoro-1-piperidinyl)-5-chloro-6-(trifluoromethoxy)-1H-benzimidazol-1-yl)methyl)-3-pyridinecarbonitrile]
16 | 21.6 nM | CN(C)C(=O)Cn1c(N2CC[C@@H](F)[C@H](N)C2)nc2ccc(C(F)(F)F)cc21 [Example 563, 2-(2-((3R,4R)-3-amino-4-fluoropiperidin-1-yl)-6-(trifluoromethyl)-1H-benzo[d]imidazol-1-yl)-N,N-dimethylacetamide]
17 | 78.5 nM | C[C@H](c1ccc(C#N)cn1)n1c(N2CC[C@@H](F)[C@H](N)C2)nc2ccccc21 [Example 297, 6-((R)-1-(2-((3R,4R)-3-amino-4-fluoropiperidin-1-yl)-1H-benzo[d]imidazol-1-yl)ethyl)nicotinonitrile hydrochloride]
18 | 6.87 nM | N#Cc1ccc(Cn2c(N3CCC(F)(F)[C@H](N)C3)nc3cc(Cl)ccc32)nc1 [Example 13, (R)-6-((2-(3-amino-4,4-difluoropiperidin-1-yl)-5-chloro-1H-benzo[d]imidazol-1-yl)methyl)nicotinonitrile]
19 | 68 nM | N#Cc1ccc(Cn2c(N3CC[C@@H](F)[C@H](N)C3)nc3c(C(F)(F)F)cccc32)nc1 [Example 90, 6-((2-((3R,4R)-3-amino-4-fluoropiperidin-1-yl)-4-(trifluoromethyl)-1H-benzo[d]imidazol-1-yl)methyl)nicotinonitrile]
20 | 0.867 nM | N[C@@H]1CN(c2nc3ccc(F)cc3n2Cc2ncc(Cl)cn2)CC[C@@H]1F [Example 39, (3R,4S)-1-(1-((5-chloropyrimidin-2-yl)methyl)-6-fluoro-1H-benzo[d]imidazol-2-yl)-4-fluoropiperidin-3-amine]
21 | 0.283 nM | N#Cc1ccc(Cn2c(N3CC[C@H](F)[C@H](N)C3)nc3ccc(Cl)cc32)nc1 [Example 8, 6-((2-((3R,4S)-3-amino-4-fluoropiperidin-1-yl)-6-chloro-1H-benzo[d]imidazol-1-yl)methyl)nicotinonitrile]
22 | 106 nM | Cc1nc(Cn2c(N3CC[C@@H](F)[C@H](N)C3)nc3cc(F)c(F)cc32)no1 [Example 572, (3R,4R)-1-(5,6-difluoro-1-((5-methyl-1,2,4-oxadiazol-3-yl)methyl)-1H-benzo[d]imidazol-2-yl)-4-fluoropiperidin-3-amine]
23 | 85.4 nM | CN(CC(F)(F)F)C(=O)Cn1c(N2CC[C@@H](F)[C@H](N)C2)nc2cc(Cl)ccc21 [Example 570, 2-(2-((3R,4R)-3-amino-4-fluoropiperidin-1-yl)-5-chloro-1H-benzo[d]imidazol-1-yl)-N-methyl-N-(2,2,2-trifluoroethyl)acetamide]
24 | 398 nM | N[C@@H]1CN(c2nc3cc(C(F)(F)F)ccc3n2CC(=O)N2CCOCC2)CC[C@H]1F [Example 473, 2-(2-((3R,4R)-3-amino-4-fluoropiperidin-1-yl)-5-(trifluoromethyl)-1H-benzo[d]imidazol-1-yl)-1-morpholinoethan-1-one]
25 | > 1750 nM | CCN(CC1CCN(C(C)=O)C1)C(=O)Cn1c(N2CC[C@@H](F)[C@H](N)C2)nc2cc(F)c(F)cc21 (mixture of isomers) [Example 650, N-((1-acetylpyrrolidin-3-yl)methyl)-2-(2-((3R,4R)-3-amino-4-fluoropiperidin-1-yl)-5,6-difluoro-1H-benzo[d]imidazol-1-yl)-N-ethylacetamide]
26 | 15800 nM | C[C@H](c1ccc(C#N)cc1)n1c(N2CCC[C@H](N)C2)nc2ccccc21 [Example 313, 4-((R)-1-(2-((S)-3-aminopiperidin-1-yl)-1H-benzo[d]imidazol-1-yl)ethyl)benzonitrile hydrochloride]
27 | 1820 nM | N#CCCN(CC1CCOC1)C(=O)Cn1c(N2CC[C@@H](F)[C@H](N)C2)nc2cc(F)c(F)cc21 (stereo partly drawn) [Example 643, 2-(2-((3R,4R)-3-amino-4-fluoropiperidin-1-yl)-5,6-difluoro-1H-benzo[d]imidazol-1-yl)-N-(2-cyanoethyl)-N-((tetrahydrofuran-3-yl)methyl)acetamide]
28 | 0.664 nM | N[C@@H]1CN(c2nc3ccccc3n2Cc2ncc(Cl)cn2)CC[C@H]1F [Example 195, (3R,4R)-1-(1-((5-chloropyrimidin-2-yl)methyl)-1H-benzo[d]imidazol-2-yl)-4-fluoropiperidin-3-amine]
